Assay type in all cases: functional
One experiment has as its system Streptococcus pneumoniae. In words: Antimicrobial activity against Streptococcus pneumoniae ATCC 49619 […].
A further experiment concerns Acinetobacter baumannii. Kind of experiment: Antimicrobial activity against Acinetobacter baumannii CAN-ICU 63169 by […].
The test system of experiment [1] is Staphylococcus epidermidis. In words: Antimicrobial activity against Staphylococcus epidermidis ATCC 14990 […].
A further experiment deals with Enterococcus faecalis. In words: Antimicrobial activity against Enterococcus faecalis ATCC 29212 […].
For experiment [2], the system named is Pseudomonas aeruginosa. In words: Antimicrobial activity against Pseudomonas aeruginosa CAN-ICU 62308 […].
Experiment [3] concerns Stenotrophomonas maltophilia. Kind of experiment: Antimicrobial activity against Stenotrophomonas maltophilia CAN-ICU 62584 […].
Experiment [4] has as its system Escherichia coli. In words: Antimicrobial activity against Escherichia coli CAN-ICU 61714 […].
Experiment [5] has as its system Staphylococcus aureus. Kind of experiment: Antimicrobial activity against methicillin-resistant Staphylococcus aureus ATCC 33592 […].
Experiment [6] deals with Escherichia coli. Kind of experiment: Antimicrobial activity against Escherichia coli ATCC 25922 by […].
For experiment [7], the system named is Escherichia coli. Kind of experiment: Antimicrobial activity against Escherichia coli CAN-ICU 63074 […].
The test system of experiment [8] is Staphylococcus aureus. Kind of experiment: Antimicrobial activity against Staphylococcus aureus ATCC 29213 […].
In a further experiment the test system is Klebsiella pneumoniae. In words: Antimicrobial activity against Klebsiella pneumoniae ATCC 13883 […].
The test system of experiment [9] is Pseudomonas aeruginosa. In words: Antimicrobial activity against Pseudomonas aeruginosa ATCC 27853 […].
The next experiment has as its system Enterococcus faecium. In words: Antimicrobial activity against Enterococcus faecium ATCC 27270 […].
Experiment [10] deals with Staphylococcus epidermidis. Kind of experiment: Antimicrobial activity against methicillin-resistant Staphylococcus epidermidis CAN-ICU 61589 […].

≈ marks a conversion by molar mass, not a printed value. Square brackets hold non-standard residues; d marks the D form. Peptide text beside a SMILES is read from it. * marks the point of attachment. Palmitoyl = CCCCCCCCCCCCCCCC(=O)*; Lauroyl = CCCCCCCCCCCC(=O)*

For 6 compounds, MIC results are on record in ChEMBL document CHEMBL1649185, “Antibacterial activity of ultrashort cationic lipo-beta-peptides” (2009).

By MIC is commonly meant the lowest concentration found to suppress growth.

`CCCCCCCCCCCCCCCC(=O)N[C@@H](CCCCN)C(=O)N[C@@H](C)C(=O)N[C@H](C)C(=O)N[C@@H](CCCCN)C(=O)O` (Palmitoyl-KA[dA]K-OH): the minimal inhibitory concentration (MIC) against Streptococcus pneumoniae stood at 128 µg/mL (≈ 195 µM); in the experiment on Acinetobacter baumannii it was 128 µg/mL (≈ 195 µM); in experiment [1] it was 4 µg/mL (≈ 6.11 µM); against Enterococcus faecalis, 16 µg/mL (≈ 24.4 µM); in the experiment on Pseudomonas aeruginosa [2], 64 µg/mL (≈ 97.7 µM); in [3] it was 128 µg/mL (≈ 195 µM). The minimum inhibitory concentration (MIC) against Escherichia coli [4] turned out to be 32 µg/mL (≈ 48.9 µM); against Staphylococcus aureus [5], 32 µg/mL (≈ 48.9 µM); in the experiment with Escherichia coli [6], 32 µg/mL (≈ 48.9 µM); against Escherichia coli [7], 32 µg/mL (≈ 48.9 µM); against Staphylococcus aureus [8] it was 8 µg/mL (≈ 12.2 µM); in the experiment with Klebsiella pneumoniae, 128 µg/mL (≈ 195 µM). Further, the results for the minimum inhibitory concentration (MIC) (against Pseudomonas aeruginosa [9]; with Enterococcus faecium; in experiment [10]) were 64 µg/mL (≈ 97.7 µM), 8 µg/mL (≈ 12.2 µM) and 8 µg/mL (≈ 12.2 µM), respectively.
In the case of `CCCCCCCCCCCCCCCC(=O)N[C@@H](CCCCN)C(=O)N[C@@H](CCCCN)C(=O)N[C@@H](CCCCN)C(=O)N[C@@H](CCCCN)C(=O)O` (Palmitoyl-KKKK-OH), the MIC in the experiment with Streptococcus pneumoniae was more than 64 µg/mL; against Acinetobacter baumannii it was 256 µg/mL (≈ 333 µM); in [1], 4 µg/mL (≈ 5.2 µM); with Enterococcus faecalis it was 16 µg/mL (≈ 20.8 µM); with Pseudomonas aeruginosa [2], 256 µg/mL (≈ 333 µM); in experiment [3], 256 µg/mL (≈ 333 µM). Moreover, the MIC in the experiment with Escherichia coli [4] was found to be 16 µg/mL (≈ 20.8 µM); with Staphylococcus aureus [5] it was 16 µg/mL (≈ 20.8 µM); in the experiment on Escherichia coli [6], 16 µg/mL (≈ 20.8 µM); in the experiment with Escherichia coli [7], 32 µg/mL (≈ 41.6 µM); in the experiment on Staphylococcus aureus [8] it was 32 µg/mL (≈ 41.6 µM); with Klebsiella pneumoniae, 256 µg/mL (≈ 333 µM). Besides, the results for the minimum inhibitory concentration (MIC) (with Pseudomonas aeruginosa [9]; against Enterococcus faecium; in experiment [10]) were 64 µg/mL (≈ 83.2 µM), 16 µg/mL (≈ 20.8 µM) and 8 µg/mL (≈ 10.4 µM), respectively.
For `CCCCCCCCCCCC(=O)N[C@@H](CCCCN)C(=O)N[C@@H](CC(C)C)C(=O)N[C@H](CC(C)C)C(=O)N[C@@H](CCCCN)C(=O)O` (Lauroyl-KL[dL]K-OH), the MIC with Streptococcus pneumoniae was 64 µg/mL (≈ 93.7 µM); in the experiment with Acinetobacter baumannii, more than 256 µg/mL; in [1] it was 8 µg/mL (≈ 11.7 µM); in the experiment with Enterococcus faecalis, 32 µg/mL (≈ 46.9 µM); in the experiment on Pseudomonas aeruginosa [2], 128 µg/mL (≈ 187 µM); in experiment [3] it was more than 256 µg/mL. The MIC against Escherichia coli [4] was 64 µg/mL (≈ 93.7 µM); against Staphylococcus aureus [5] it was 16 µg/mL (≈ 23.4 µM); in the experiment with Escherichia coli [6], 64 µg/mL (≈ 93.7 µM); with Escherichia coli [7] it was 64 µg/mL (≈ 93.7 µM); in the experiment on Staphylococcus aureus [8], 16 µg/mL (≈ 23.4 µM); in the experiment with Klebsiella pneumoniae, more than 64 µg/mL. For the same compound, the MIC amounted to 128 µg/mL (≈ 187 µM) in the experiment on Pseudomonas aeruginosa [9], 32 µg/mL (≈ 46.9 µM) against Enterococcus faecium and 16 µg/mL (≈ 23.4 µM) in [10].
Turning to `CCCCCCCCCCCCCCCC(=O)N[C@H](CCCN)CC(=O)NCC(=O)NCC(=O)N[C@H](CCCN)CC(=O)O`, the MIC against Streptococcus pneumoniae was 128 µg/mL (≈ 204 µM); in the experiment on Acinetobacter baumannii, 128 µg/mL (≈ 204 µM); in [1], 8 µg/mL (≈ 12.8 µM); in the experiment on Enterococcus faecalis, 32 µg/mL (≈ 51 µM); against Pseudomonas aeruginosa [2], more than 64 µg/mL; in experiment [3] it was 256 µg/mL (≈ 408 µM). The MIC against Escherichia coli [4] is 32 µg/mL (≈ 51 µM); in the experiment on Staphylococcus aureus [5], 32 µg/mL (≈ 51 µM); with Escherichia coli [6], 32 µg/mL (≈ 51 µM); against Escherichia coli [7] it was 32 µg/mL (≈ 51 µM); against Staphylococcus aureus [8] it was 16 µg/mL (≈ 25.5 µM); in the experiment with Klebsiella pneumoniae it was 128 µg/mL (≈ 204 µM). The results for the MIC (with Pseudomonas aeruginosa [9]; in the experiment on Enterococcus faecium; in experiment [10]) were 64 µg/mL (≈ 102 µM), 32 µg/mL (≈ 51 µM) and 16 µg/mL (≈ 25.5 µM), respectively.
As to `CCCCCCCCCCCCCCCC(=O)N[C@@H](CCCCN)C(=O)N[C@@H](C)C(=O)N[C@@H](C)C(=O)N[C@@H](CCCCN)C(=O)O` (Palmitoyl-KAAK-OH), the MIC in the experiment on Streptococcus pneumoniae stood at 128 µg/mL (≈ 195 µM); in the experiment with Acinetobacter baumannii, 128 µg/mL (≈ 195 µM); in [1], 8 µg/mL (≈ 12.2 µM); against Enterococcus faecalis it was 16 µg/mL (≈ 24.4 µM); against Pseudomonas aeruginosa [2], 64 µg/mL (≈ 97.7 µM); in [3] it was 128 µg/mL (≈ 195 µM). Moreover, the MIC against Escherichia coli [4] is 16 µg/mL (≈ 24.4 µM); with Staphylococcus aureus [5], 16 µg/mL (≈ 24.4 µM); against Escherichia coli [6] it was 16 µg/mL (≈ 24.4 µM); in the experiment with Escherichia coli [7], 16 µg/mL (≈ 24.4 µM); against Staphylococcus aureus [8] it was 16 µg/mL (≈ 24.4 µM); in the experiment on Klebsiella pneumoniae it was 128 µg/mL (≈ 195 µM). Also, the results for the minimum inhibitory concentration (MIC) (in the experiment with Pseudomonas aeruginosa [9]; in the experiment on Enterococcus faecium; in [10]) were 32 µg/mL (≈ 48.9 µM), 8 µg/mL (≈ 12.2 µM) and 8 µg/mL (≈ 12.2 µM), respectively.
`CCCCCCCCCCCCCCCC(=O)N[C@@H](CCCCN)C(=O)N[C@@H](CCCCN)C(=O)N[C@H](CCCCN)C(=O)N[C@@H](CCCCN)C(=O)O` (Palmitoyl-KK[dK]K-OH): the minimum inhibitory concentration (MIC) in the experiment on Streptococcus pneumoniae is more than 32 µg/mL; against Acinetobacter baumannii, 256 µg/mL (≈ 333 µM); in [1] it was 4 µg/mL (≈ 5.2 µM); against Enterococcus faecalis, 32 µg/mL (≈ 41.6 µM); with Pseudomonas aeruginosa [2] it was 256 µg/mL (≈ 333 µM); in experiment [3], 256 µg/mL (≈ 333 µM). The MIC against Escherichia coli [4] turned out to be 32 µg/mL (≈ 41.6 µM); against Staphylococcus aureus [5] it was 16 µg/mL (≈ 20.8 µM); against Escherichia coli [6], 32 µg/mL (≈ 41.6 µM); with Escherichia coli [7], 32 µg/mL (≈ 41.6 µM); in the experiment with Staphylococcus aureus [8], 16 µg/mL (≈ 20.8 µM); in the experiment with Klebsiella pneumoniae, 256 µg/mL (≈ 333 µM). Besides, the MIC against Pseudomonas aeruginosa [9] came out at 32 µg/mL (≈ 41.6 µM); against Enterococcus faecium, 16 µg/mL (≈ 20.8 µM); in experiment [10], 8 µg/mL (≈ 10.4 µM).
